# Laboratory results reported in patent US20160002217A1, “FUNGICIDAL 3--OXADIAZOLONE DERIVATIVES” (BAYER CROPSCIENCE AG, priority 2013, published 2016).
# Marks after values point to notes of the source that are not given here.
# Tested on: Phytophthora infestans
# Type: in vivo
# Conditions: tomato plants, preventive spray, 500 ppm of active ingredient, evaluated 5 days after inoculation
row,SMILES,% efficacy [%]
1,CCCCOC(=O)Nc1cccc(CON=C(c2cccnc2)c2nc(=O)on2C)n1 [Example 57],95
2,CCCC(C)C(=O)Nc1nc(CON=C(c2ccsc2)c2noc(=O)n2C)cs1 (centres unmarked) [Example 71],100
3,Cn1c(C(=NOCc2cccc(NC(=O)OC(C)(C)C)n2)c2ccncc2)noc1=O [Example 38],100
4,Cn1c(C(=NOCc2csc(NC(=O)OC(C)(C)C)n2)c2cccs2)noc1=O [Example 42],93
5,CCCCC(=O)Nc1cccc(CON=C(c2cccnc2)c2noc(=O)n2C)n1 [Example 59],78
6,CCCCOC(=O)Nc1cccc(CON=C(c2cccnc2)c2noc(=O)n2C)n1 [Example 50],100
7,CCCCCC(=O)Nc1nc(CON=C(c2ccsc2)c2noc(=O)n2C)cs1 [Example 73],100
8,C#CCCOC(=O)Nc1cccc(CON=C(c2cccnc2)c2noc(=O)n2C)n1 [Example 51],90
9,CCCCCOC(=O)Nc1nc(CON=C(c2cccs2)c2noc(=O)n2C)cs1 [Example 74],85
10,CCCCCOC(=O)Nc1cccc(CON=C(c2cccnc2)c2nc(=O)on2C)n1 [Example 55],92
11,Cn1oc(=O)nc1C(=NOCc1cccc(NC(=O)OC(C)(C)C)n1)c1ccncc1 [Example 37],80
12,C#CCCOC(=O)Nc1cccc(CON=C(c2ccccn2)c2noc(=O)n2C)n1 [Example 7],85
13,CCCCCOC(=O)Nc1cccc(CON=C(c2ccccn2)c2nc(=O)on2C)n1 [Example 15],88
14,CC(Oc1ccccc1)C(=O)Nc1nc(CON=C(c2ccsc2)c2noc(=O)n2C)cs1 (racemic) [Example 43],98
15,C#CCCOC(=O)Nc1cccc(CON=C(c2cccnc2)c2nc(=O)on2C)n1 [Example 56],89

# Tested on: not given
# Conditions: pH 2.7
row,SMILES,LogP
1,Cn1c(C(=NOCc2csc(N(COCC[Si](C)(C)C)C(=O)OC(C)(C)C)n2)c2cccs2)noc1=O [Example 70],5.84^[a]
2,CCCCC(=O)Nc1cccc(CON=C(c2ncccn2)c2nc(=O)on2C)n1 [Example 58],1.84^[a]
3,CCCCOC(=O)Nc1cccc(CON=C(c2ncccn2)c2nc(=O)on2C)n1 [Example 46],2.23^[a]
4,CC(C)(C)OC(=O)N(COCC[Si](C)(C)C)c1nc(CON=C(c2noc(=O)[nH]2)c2cccs2)cs1 [Example 72],5.45^[a]
5,Cn1c(C(=NOCc2cccc(N)n2)c2ccccn2)noc1=O [Example 14],0.85^[a]
6,CCCCOC(=O)Nc1cccc(CON=C(c2cccnc2)c2nc(=O)on2C)n1 [Example 57],2.47^[a]
7,Cn1c(C(=NOCc2csc(NC(=O)c3ccc(F)cc3)n2)c2ccsc2)noc1=O [Example 64],3.26^[a]
8,CCCC(C)C(=O)Nc1nc(CON=C(c2ccsc2)c2noc(=O)n2C)cs1 (centres unmarked) [Example 71],3.39^[a]
9,CC(C)(C)OC(=O)Nc1cccc(CON=C(c2ncccn2)c2noc(=O)[nH]2)n1 [Example 26],2.27^[a]
10,Cn1c(C(=NOCc2cccc(NC(=O)OC(C)(C)C)n2)c2ccncc2)noc1=O [Example 38],2.75^[a]
11,Cn1c(C(=NOCc2csc(NC(=O)OC(C)(C)C)n2)c2cccs2)noc1=O [Example 42],3.35^[a]
12,CCCCCC(=O)Nc1cccc(CON=C(c2ccncc2)c2nc(=O)on2C)n1 [Example 77],2.23^[a]
13,CCCCC(=O)Nc1cccc(CON=C(c2cccnc2)c2noc(=O)n2C)n1 [Example 59],2.51^[a]
14,Cn1oc(=O)nc1C(=NOCc1cccc(N)n1)c1ncccn1 [Example 29],0.92^[a]
15,Cn1oc(=O)nc1C(=NOCc1cccc(N)n1)c1ccncc1 [Example 39],1.20^[c]
16,CC(C)(C)OC(=O)Nc1cccc(CON=C(C(N)=NO)c2ccccn2)n1 [Example V-01],1.76^[a]
17,CC(C)(C)OC(=O)N(C(=O)OC(C)(C)C)c1nc(CON=C(C#N)c2ccsc2)cs1 [Example IV-11],4.90^[a]
18,CCCCOC(=O)Nc1cccc(CON=C(c2cccnc2)c2noc(=O)n2C)n1 [Example 50],2.98^[a]
19,Cn1c(C(=NOCc2cccc(N)n2)c2ccncc2)noc1=O [Example 40],0.41^[a]
20,C#CCCOC(=O)Nc1cccc(CON=C(c2ncccn2)c2noc(=O)n2C)n1 [Example 54],2.08^[a]
21,CC(C)(C)OC(=O)Nc1nc(CON=C(C#N)c2cccs2)cs1 [Example IV-05],3.65^[a]
22,CCCCCC(=O)Nc1nc(CON=C(c2ccsc2)c2noc(=O)n2C)cs1 [Example 73],3.43^[a]
23,CCCCCOC(=O)Nc1cccc(CON=C(c2ccncc2)c2nc(=O)on2C)n1 [Example 78],2.68^[a]
24,CCCCCC(=O)Nc1cccc(CON=C(c2ccccn2)c2nc(=O)on2C)n1 [Example 18],2.61^[a]
25,C#CCCOC(=O)Nc1cccc(CON=C(c2cccnc2)c2noc(=O)n2C)n1 [Example 51],2.32^[a]
26,CC(C)(C)OC(=O)Nc1nc(CON=C(C#N)c2ccsc2)cs1 [Example IV-01],3.62^[a]

row,SMILES,LogP
1,Cn1oc(=O)nc1C(=NOCc1cccc(NC(=O)OC(C)(C)C)n1)c1cccnc1 [Example 31],2.28 + 2.37^[a]
2,CCCCCC(=O)Nc1cccc(CON=C(c2ccccn2)c2nc(=O)on2CC)n1 [Example 11],2.84^[a]
3,CC(C)(C)OC(=O)Nc1nc(CON=C(c2ccsc2)c2noc(=O)[nH]2)cs1 [Example 20],3.20^[a]
4,Cn1c(C(=NOCc2csc(N(COCC[Si](C)(C)C)C(=O)OC(C)(C)C)n2)c2ccsc2)noc1=O [Example 65],5.86^[a]
5,CCCCCOC(=O)Nc1nc(CON=C(c2cccs2)c2noc(=O)n2C)cs1 [Example 74],3.79^[a]
6,CCCCCC(=O)Nc1cccc(CON=C(c2ncccn2)c2nc(=O)on2C)n1 [Example 48],2.18^[a]
7,Cn1c(C(=NOCc2cccc(N)n2)c2ncccn2)noc1=O [Example 30],0.39^[a]
8,Cn1oc(=O)nc1C(=NOCc1cccc(NC(=O)OC(C)(C)C)n1)c1ncccn1 [Example 25],2.14^[a]
9,CCOC(=O)c1nc(CON=C(C#N)c2ccsc2)cs1 [Example IV-08],3.15^[a]
10,CCCCCOC(=O)Nc1cccc(CON=C(c2cccnc2)c2nc(=O)on2C)n1 [Example 55],2.84^[a]
11,CCCCOC(=O)Nc1cccc(CON=C(c2ccccn2)c2nc(=O)on2C)n1 [Example 21],2.70^[a]
12,CCCCCC(=O)Nc1cccc(CON=C(c2cccnc2)c2noc(=O)n2C)n1 [Example 47],2.86^[a]
13,Cn1oc(=O)nc1C(=NOCc1cccc(NC(=O)OC(C)(C)C)n1)c1ccncc1 [Example 37],2.21^[a]
14,CCCCC(=O)Nc1cccc(CON=C(c2ccccn2)c2nc(=O)on2C)n1 [Example 10],2.25^[a]
15,CC(C)(C)OC(=O)Nc1cccc(CON=C(C(N)=NO)c2ccncc2)n1 [Example V-06],1.53^[a]
16,CC(C)(C)OC(=O)Nc1nc(CON=C(c2noc(=O)[nH]2)c2cccs2)cs1 [Example 24],3.26^[a]
17,CCOC(=O)c1nc(CON=C(C(N)=NO)c2ccsc2)cs1 [Example V-05],1.70^[a]
18,C#CCCOC(=O)Nc1cccc(CON=C(c2ccccn2)c2noc(=O)n2C)n1 [Example 7],2.56^[a]
19,CN(C(=O)OC(C)(C)C)c1nc(CON=C(c2cccs2)c2noc(=O)n2C)cs1 [Example 41],4.24^[a]
20,CCCCCOC(=O)Nc1cccc(CON=C(c2ccccn2)c2nc(=O)on2C)n1 [Example 15],3.09^[a]
21,Cn1c(C(=NOCc2csc(NC(=O)c3ccc(F)cc3)n2)c2cccs2)noc1=O [Example 85],3.20^[a]
22,Cn1c(C(=NOCc2csc(NC(=O)COc3ccccc3)n2)c2cccs2)noc1=O [Example 86],3.18^[a]
23,CC(Oc1ccccc1)C(=O)Nc1nc(CON=C(c2ccsc2)c2noc(=O)n2C)cs1 (racemic) [Example 43],3.37^[a]
24,CC(C)(C)OC(=O)N(COCC[Si](C)(C)C)c1nc(CON=C(C(N)=NO)c2cccs2)cs1 [Example V-04],4.60^[a]
25,CCn1oc(=O)nc1C(=NOCc1cccc(NC(=O)OC(C)(C)C)n1)c1ccccn1 [Example 8],2.84^[a]
26,CCn1oc(=O)nc1C(=NOCc1cccc(N)n1)c1ccccn1 [Example 1],0.69^[a]

row,SMILES,LogP
1,C#CCCOC(=O)Nc1cccc(CON=C(c2cccnc2)c2nc(=O)on2C)n1 [Example 56],1.88^[a]
2,CC(C)(C)OC(=O)Nc1nc(CON=C(C(N)=NO)c2ccsc2)cs1 [Example V-02],2.17^[a]
3,CC(C)(C)OC(=O)Nc1cccc(CON=C(C#N)c2ncccn2)n1 [Example IV-03],2.82^[a]
4,Cn1c(C(=NOCc2cccc(N)n2)c2cccnc2)noc1=O [Example 35],0.52 ± 0.46^[a]
5,CCCCC(=O)Nc1cccc(CON=C(c2ncccn2)c2noc(=O)n2C)n1 [Example 61],2.23^[a]
6,CCCCC(=O)Nc1cccc(CON=C(c2cccnc2)c2nc(=O)on2C)n1 [Example 62],2.04^[a]
7,CCCCCOC(=O)Nc1nc(CON=C(c2ccsc2)c2noc(=O)n2C)cs1 [Example 68],3.81^[a]
8,"Cn1c(C(=NOCc2cccc(NC(=O)OC(C)(C)C)n2)c2ncccn2)noc1=O (single isomer, unassigned) [Example 28]",2.56^[a][c]
9,CC(C)(C)OC(=O)N(COCC[Si](C)(C)C)c1nc(CON=C(c2ccsc2)c2noc(=O)[nH]2)cs1 [Example 66],5.45^[a]
10,CCCCC(=O)Nc1cccc(CON=C(c2ccccn2)c2nc(=O)on2CC)n1 [Example 6],2.49^[a]
11,N#CC(=NOCc1csc(NC(=O)c2ccc(F)cc2)n1)c1ccsc1 [Example IV-10],3.51^[a]
12,CCCCC(=O)Nc1cccc(CON=C(c2ccncc2)c2nc(=O)on2C)n1 [Example 75],1.88^[a]
13,Cn1oc(=O)nc1C(=NOCc1cccc(N)n1)c1cccnc1 [Example 34],1.19^[a]
14,"Cn1c(C(=NOCc2cccc(NC(=O)OC(C)(C)C)n2)c2ncccn2)noc1=O (single isomer, unassigned) [Example 27]",2.66^[a][b]
15,CC(C)(C)OC(=O)Nc1cccc(CON=C(C#N)c2ccncc2)n1 [Example IV-04],3.05^[a]
16,Cc1nc(CON=C(C#N)c2ccsc2)cs1 [Example IV-09],1.45^[a]
17,CCCCOC(=O)Nc1cccc(CON=C(c2ccncc2)c2nc(=O)on2C)n1 [Example 79],2.32^[a]
18,C#CCCOC(=O)Nc1cccc(CON=C(c2ccncc2)c2nc(=O)on2C)n1 [Example 76],1.74^[a]
19,Cn1c(C(=NOCc2csc(N)n2)c2cccs2)noc1=O [Example 81],1.38^[a]
20,CCCCOC(=O)Nc1cccc(CON=C(c2ccccn2)c2nc(=O)on2CC)n1 [Example 5],2.96^[a]
21,CC(C)(C)OC(=O)Nc1nc(CON=C(C(N)=NO)c2cccs2)cs1 [Example V-08],2.26^[a]
22,CC(C)(C)OC(=O)Nc1cccc(CON=C(C(N)=NO)c2ncccn2)n1 [Example V-07],1.58 + 1.87^[a]
23,CC(C)(C)OC(=O)N(COCC[Si](C)(C)C)c1nc(CON=C(C#N)c2cccs2)cs1 [Example IV-06],6.35^[a]
24,CCCCCOC(=O)Nc1cccc(CON=C(c2ccccn2)c2nc(=O)on2CC)n1 [Example 2],3.42^[a]
25,CC(C)(C)OC(=O)Nc1cccc(CON=C(c2ccncc2)c2noc(=O)[nH]2)n1 [Example 36],2.37^[a]
